# Columns and labels:
# K562 cells = assay: K562 Cell-Based Assay; conditions: Homo sapiens, NBD-Ceramide, LCMS, read-out: Assay 2 (Cellular Assay; K562 cells) IC50
# Experimental: This assay was modified based on the study by Gupta et al. (J. Lipid Res. 2010, 51, 866). K562 cells were seeded into 12-well plates at 3×10^5 cells/well/mL in RPMI-1640 medium with 5% FBS and incubated at 37° C. for 24 h. One μL of a compound described herein at desired concentration (10 mM, 1 mM, 0.1 mM, 0.01 mM, 0.001 mM and 0.0001 mM in DMSO) or DMSO was added into the corresponding well and mixed. Cells were incubated at 37° C. for 4 h. Then 100 μL of RPMI-1640 medium containing 110 μM of NBD-Ceramide, 11% BSA, 5% FBS, and corresponding concentration of a compound described herein was added into each well and mixed. Cells were incubated for additional 0.5 h at 37° C., followed by washing the cells with ice-cold PBS (pH 7.4) twice with centrifugation and resuspended with 50 μL cold PBS+1% Triton X-100. The cell lysate was sonicated for 15 min before adding equal volume of methanol for LCMS analysis. A small aliquot of cell lysate was used to determine protein concentration by BCA assay kit. The HPLC equipment and methods used in Assay 1 were used in this assay as well and IC50's were calculated.
# [1] = biological target: glucosylceramide synthase (GCS) (Canis lupus familiaris, UniProt A0A8I3MXG6); assay: GCS Enzymatic Assay (MDCK lysates); format: biochemical, canine; conditions: MDCK cell lysate, C6-NBD-Ceramide, 37° C. for 1 hour, LC/MS; read-out: Assay 1 (Enzyme Assay; MDCK lysates) IC50
# Sequence of glucosylceramide synthase (GCS) (A0A8I3MXG6 1-394): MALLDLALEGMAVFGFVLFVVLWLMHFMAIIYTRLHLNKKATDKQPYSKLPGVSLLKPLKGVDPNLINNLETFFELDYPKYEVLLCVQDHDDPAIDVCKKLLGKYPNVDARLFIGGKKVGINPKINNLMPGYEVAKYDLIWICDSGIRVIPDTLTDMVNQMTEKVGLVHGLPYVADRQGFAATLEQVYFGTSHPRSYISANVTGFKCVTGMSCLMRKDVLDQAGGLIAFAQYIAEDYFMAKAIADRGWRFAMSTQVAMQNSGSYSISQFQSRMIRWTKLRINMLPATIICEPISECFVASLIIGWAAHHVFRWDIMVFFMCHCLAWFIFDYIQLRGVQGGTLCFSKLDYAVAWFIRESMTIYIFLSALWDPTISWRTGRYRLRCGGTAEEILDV
# Experimental: Madin-Darby canine kidney (MDCK) cell lysate was prepared using M-PER Mammalian Protein Extraction Reagent (Thermal Scientific) in the presence of a protease inhibitor cocktail (Roche). Protein concentration was determined using BCA assay kit (Pierce). […] 0.1% DMSO was used as mock treatment or control. The reaction was terminated by adding 100 μL acetonitrile solution and subjected to LC/MS analysis.
# The quantitative analysis of NBD-Ceramide and glucosylceramide was performed on a Shimadzu ultra-fast liquid chromatography (Shimadzu, Japan) coupled with API 4000 triple quadrupole mass spectrometer (Applied Biosystems, Concord, Ontario, Canada). Sample separation was conducted on a Waters Xbridge™ BEH130 C18, 100 mm×4.6 mm i.d, 3.5 μm (Milford, Mass., USA). The mobile phase consisted of water and acetonitrile supplemented with 0.1% formic acid (v/v). The flow rate was 1.0 mL/min. The initial mobile phase was 20% acetonitrile and was ramped in a linear fashion to 50% acetonitrile in 0.4 min. From 0.4 to 1.5 min, the gradient was ramped to 98% acetonitrile, and then was held at […] until 8.0 min. Acetonitrile was reset to 20% in 1.5 min, and maintained until 10.0 min. The total run time was 10.0 min. The MS/MS detection was performed in ESI positive mode. […] The cell lysate was diluted with equal volume of acetonitrile. Aliquots of 50 μL diluted samples were added to 1.5 mL tubes, and 100 μL of acetonitrile containing internal standard (100 ng/mL tolbutamide) were added for protein precipitation. The mixture were vortexed and then centrifuged at 13000 rpm for 10 min. 70 μL of supernatant were mixed with 140 μL of H2O and the final solution were injected for LC/MS/MS analysis and IC50's and/or percent inhibitions calculated.
SMILES,IC50 (K562 cells) [nM],IC50 [1] [nM]
"O=C(N[C@H](CN1CCCC1)[C@H](O)c1ccc(OC2CC2)c(Cl)c1)C1=NOCc2c1ccc1cccnc21 [Example 27, N-((1R,2R)-1-(3-chloro-4-cyclopropoxyphenyl)-1-hydroxy-3-(pyrrolidin-1-yl)propan-2-yl)-10H-[1,2]oxazino[4,5-h]quinoline-7-carboxamide]",10 to 100,< 10
"O=C(N[C@H](CN1CCCC1)[C@H](O)c1ccc(OC2CC2)c(Cl)c1)C1=NOCc2c1ccc1cc(F)ccc21 [Example 28, N-((1R,2R)-1-(3-chloro-4-cyclopropoxyphenyl)-1-hydroxy-3-(pyrrolidin-1-yl)propan-2-yl)-8-fluoro-1H-naphtho[2,1-d][1,2]oxazine-4-carboxamide]",≤ 10,< 10
"O=C(N[C@H](CN1CCCC1)[C@H](O)c1ccc(OC2CC2)cc1)C1=NOCc2c1ccc1cc(F)ccc21 [Example 29, N-((1R,2R)-1-(4-cyclopropoxyphenyl)-1-hydroxy-3-(pyrrolidin-1-yl)propan-2-yl)-8-fluoro-1H-naphtho[2,1-d][1,2]oxazine-4-carboxamide]",≤ 10,< 10
"O=C(N[C@H](CN1CCC1)[C@H](O)c1ccc(OC2CC2)c(Cl)c1)C1=NOCc2c1ccc1cc(F)ccc21 [Example 30, N-((1R,2R)-3-(azetidin-1-yl)-1-(3-chloro-4-cyclopropoxyphenyl)-1-hydroxypropan-2-yl)-8-fluoro-1H-naphtho[2,1-d][1,2]oxazine-4-carboxamide]",10 to 100,< 10
"O=C(N[C@H](CN1CCC1)[C@H](O)c1ccc(OC2CC2)cc1)C1=NOCc2c1ccc1cc(F)ccc21 [Example 31, N-((1R,2R)-3-(azetidin-1-yl)-1-(4-cyclopropoxyphenyl)-1-hydroxypropan-2-yl)-8-fluoro-1H-naphtho[2,1-d][1,2]oxazine-4-carboxamide]",10 to 100,10 to 100
"O=C(N[C@H](CN1CCCC1)[C@H](O)c1ccc(OC2CC2)c(Cl)c1)C1=NOCc2c1ccc1sc(Cl)cc21 [Example 32, 8-chloro-N-((1R,2R)-1-(3-chloro-4-cyclopropoxyphenyl)-1-hydroxy-3-(pyrrolidin-1-yl)propan-2-yl)-1H-thieno[3′,2′:3,4]benzo[1,2-d][1,2]oxazine-4-carboxamide]",≤ 10,< 10
"Cn1ncc2c3c(ccc21)C(C(=O)N[C@H](CN1CCCC1)[C@H](O)c1ccc(OC2CC2)c(Cl)c1)=NOC3 [Example 33, N-((1R,2R)-1-(3-chloro-4-cyclopropoxyphenyl)-1-hydroxy-3-(pyrrolidin-1-yl)propan-2-yl)-7-methyl-1,7-dihydro-[1,2]oxazino[5,4-e]indazole-4-carboxamide]",10 to 100,< 10
"Cn1ncc2ccc3c(c21)CON=C3C(=O)N[C@H](CN1CCCC1)[C@H](O)c1ccc(OC2CC2)c(Cl)c1 [Example 34, N-((1R,2R)-1-(3-chloro-4-cyclopropoxyphenyl)-1-hydroxy-3-(pyrrolidin-1-yl)propan-2-yl)-1-methyl-1,9-dihydro-[1,2]oxazino[4,5-g]indazole-6-carboxamide]",10 to 100,< 10
"O=C(N[C@H](CN1CCCC1)[C@H](O)c1ccc(OC2CC2)c(Cl)c1)C1=NOCc2c1ccc1ncccc21 [Example 36, N-((1R,2R)-1-(3-chloro-4-cyclopropoxyphenyl)-1-hydroxy-3-(pyrrolidin-1-yl)propan-2-yl)-1H-[1,2]oxazino[5,4-f]quinoline-4-carboxamide]",10 to 100,< 10
"O=C(N[C@H](CN1CCCC1)[C@H](O)c1ccc(OC2CC2)c(Cl)c1)C1=NOCc2c1ccc1cc(Cl)sc21 [Example 37, 2-chloro-N-((1R,2R)-1-(3-chloro-4-cyclopropoxyphenyl)-1-hydroxy-3-(pyrrolidin-1-yl)propan-2-yl)-9H-thieno[2′,3′:3,4]benzo[1,2-d][1,2]oxazine-6-carboxamide]",≤ 10,< 10
"O=C(N[C@H](CN1CCCC1)[C@H](O)c1ccc(OC2CC2)c(F)c1)C1=NCCc2cc(-c3ccc(F)cc3)ccc21 [Example 38, N-((1R,2R)-1-(4-cyclopropoxy-3-fluorophenyl)-1-hydroxy-3-(pyrrolidin-1-yl)propan-2-yl)-6-(4-fluorophenyl)-3,4-dihydroisoquinoline-1-carboxamide]",≤ 10,10 to 100
"CN(C(=O)C1=NCCc2cc(-c3ccc(F)cc3)ccc21)[C@H](CN1CCCC1)[C@H](O)c1ccc(OC2CC2)c(Cl)c1 [Example 39, N-((1R,2R)-1-(3-chloro-4-cyclopropoxyphenyl)-1-hydroxy-3-(pyrrolidin-1-yl)propan-2-yl)-6-(4-fluorophenyl)-N-methyl-3,4-dihydroisoquinoline-1-carboxamide]",≤ 10,10 to 100
"O=C(N[C@H](CN1CCCC1)[C@H](O)c1ccc(OC2CC2)cc1)C1=NOCc2c1ccc1sc(Cl)cc21 [Example 44, 8-chloro-N-((1R,2R)-1-(4-cyclopropoxyphenyl)-1-hydroxy-3-(pyrrolidin-1-yl)propan-2-yl)-1H-thieno[3′,2′:3,4]benzo[1,2-d][1,2]oxazine-4-carboxamide]",≤ 10,10 to 100
"O=C(N[C@H](CN1CCCC1)[C@H](O)c1ccc(OC2CC2)c(Cl)c1)C1=NOCc2cc(OCC3CCCCC3)ccc21 [Example 45, N-((1R,2R)-1-(3-chloro-4-cyclopropoxyphenyl)-1-hydroxy-3-(pyrrolidin-1-yl)propan-2-yl)-7-(cyclohexylmethoxy)-1H-benzo[d][1,2]oxazine-4-carboxamide]",10 to 100,< 10
"Cn1ncc2ccc3c(c21)CON=C3C(=O)N[C@H](CN1CCCC1)[C@H](O)c1ccc(OC2CC2)c(F)c1 [Example 46, N-((1R,2R)-1-(4-cyclopropoxy-3-fluorophenyl)-1-hydroxy-3-(pyrrolidin-1-yl)propan-2-yl)-1-methyl-1,9-dihydro[1,2]oxazino[4,5-g]indazole-6-carboxamide]",≤ 10,< 10
"O=C(N[C@H](CN1CCCC1)[C@H](O)c1ccc(OC2CC2)c(F)c1)C1=NOCc2c1ccc1cc(Cl)sc21 [Example 47, 2-chloro-N-((1R,2R)-1-(4-cyclopropoxy-3-fluorophenyl)-1-hydroxy-3-(pyrrolidin-1-yl)propan-2-yl)-9H-thieno[2′,3′:3,4]benzo[1,2-d][1,2]oxazine-6-carboxamide]",≤ 10,< 10
